Data as given in ChEMBL document CHEMBL3745676, “Alkylamino derivatives of N-benzylpyrazine-2-carboxamide: synthesis and antimycobacterial evaluation” (Medchemcomm, 2015).
Converted amounts (≈) assume the structure as drawn. The source made the active and inactive calls. No cut-off for these calls is given here.

Assays:
[1] = Lipophilicity, logK of the compound by RP-HPLC analysis; type: physicochemical
[2] = test system: Mycobacterium tuberculosis; test: Antimycobacterial activity against Mycobacterium tuberculosis H37Rv CNCTC My 331/88 incubated for 10 to 14 days by microplate alamar blue assay; type: functional
[3] = test system: Mycobacterium tuberculosis; test: Inhibition of mycolic acid synthesis in [1,2-14C]-acetate-labelled Mycobacterium tuberculosis H37Ra at 5 ug/ml preincubated for 20 hrs followed by radiolabelling measured after 24 hrs by autoradiography; type: functional, organism-based
[4] = test system: Mycobacterium kansasii; test: Antimycobacterial activity against Mycobacterium kansasii CNCTC My 235/80 incubated for 5 to 7 days by microplate alamar blue assay; type: functional
[5] = test system: Mycobacterium tuberculosis; test: Effect on short chain fatty acids production in [1,2-14C]-acetate-labelled Mycobacterium tuberculosis H37Ra at 5 ug/ml preincubated for 20 hrs followed by radiolabelling measured after 24 hrs by autoradiography; type: functional, organism-based
[6] = test system: Aspergillus fumigatus; test: Antifungal activity against Aspergillus fumigatus 231 after 24 to 48 hrs by broth microdilution method; type: functional
[7] = test system: Mycobacterium tuberculosis; test: Potency index, ratio of pyrazinamide MIC to compound MIC for Mycobacterium tuberculosis H37Rv CNCTC My 331/88; type: functional
[8] = test system: Klebsiella pneumoniae; test: Antibacterial activity against Klebsiella pneumoniae D 11750/08 after 24 to 48 hrs by broth microdilution method; type: functional
[9] = Cytotoxicity against CRFK cells assessed as cell viability after 4 to 6 days by formazan-based MTS assay; design: species or system Felis catus; conditions: cat
[10] = test system: Influenza A virus; test: Antiviral activity against Influenza A virus (A/Puerto Rico/8/(H1N1)) assessed as inhibition of virus-induced cytopathic effect after 3 to 6 days by microscopic analysis; type: functional, organism-based
[11] = test system: Escherichia coli; test: Antibacterial activity against Escherichia coli CCM 4517 after 24 to 48 hrs by broth microdilution method; type: functional
[12] = test system: Nakaseomyces glabratus; test: Antifungal activity against Candida glabrata 20/I after 24 to 48 hrs by broth microdilution method; type: functional
[13] = test system: Trichophyton mentagrophytes; test: Antifungal activity against Trichophyton mentagrophytes 445 after 72 to 120 hrs by broth microdilution method; type: functional
[14] = test system: Influenza A virus; test: Antiviral activity against Influenza A virus (A/Puerto Rico/8/(H1N1)) assessed as inhibition of virus-induced cytopathic effect after 3 to 6 days by formazan-based MTS assay; type: functional, organism-based
[15] = test system: Candida tropicalis; test: Antifungal activity against Candida tropicalis 156 after 24 to 48 hrs by broth microdilution method; type: functional
[16] = Cytotoxicity against HEL cells assessed as cell viability after 4 to 6 days by microscopic analysis; type: cell-based; conditions: human
[17] = Cytotoxicity against MDCK cells assessed as cell viability after 4 to 6 days by microscopic analysis; type: cell-based, Canis lupus familiaris; conditions: dog
[18] = test system: Klebsiella pneumoniae; test: Antibacterial activity against ESBL positive Klebsiella pneumoniae J 14368/08 after 24 to 48 hrs by broth microdilution method; type: functional
[19] = test system: Pseudomonas aeruginosa; test: Antibacterial activity against Pseudomonas aeruginosa CCM 1961 after 24 to 48 hrs by broth microdilution method; type: functional
[20] = Cytotoxicity against human HeLa cells assessed as cell viability after 4 to 6 days by microscopic analysis; type: cell-based
[21] = test system: Lichtheimia corymbifera; test: Antifungal activity against Lichtheimia corymbifera 272 after 24 to 48 hrs by broth microdilution method; type: functional
[22] = test system: Pichia kudriavzevii; test: Antifungal activity against Candida krusei E28 after 24 to 48 hrs by broth microdilution method; type: functional
[23] = test system: Staphylococcus aureus; test: Antibacterial activity against methicillin-resistant Staphylococcus aureus H 5996/08 after 24 to 48 hrs by broth microdilution method; type: functional, organism-based
[24] = test system: Mycobacterium avium; test: Antimycobacterial activity against Mycobacterium avium CNCTC My 80/72 after 5 days by microplate alamar blue assay; type: functional; conditions: CNCTC My 80/72, 120 h
[25] = Cytotoxicity against MDCK cells assessed as cell viability after 4 to 6 days by formazan-based MTS assay; design: species or system Canis lupus familiaris; conditions: dog
[26] = test system: Trichosporon asahii; test: Antifungal activity against Trichosporon asahii 1188 after 24 to 48 hrs by broth microdilution method; type: functional
[27] = Cytotoxicity against African green monkey Vero cells assessed as cell viability after 4 to 6 days by microscopic analysis; type: cell-based; conditions: chlorocebus sabaeus
[28] = test system: Mycobacterium avium; test: Antimycobacterial activity against Mycobacterium avium CNCTC My 152/73 after 5 days by microplate alamar blue assay; type: functional; conditions: CNCTC My 152/73, 120 h
[29] = test system: Candida albicans; test: Antifungal activity against Candida albicans ATCC 44859 after 24 to 48 hrs by broth microdilution method; type: functional
[30] = test system: Staphylococcus aureus; test: Antibacterial activity against Staphylococcus aureus after 24 to 48 hrs by broth microdilution method; type: functional
[31] = test system: Respiratory syncytial virus; test: Antiviral activity against Respiratory syncytial virus infecetd in human HeLa cells assessed as inhibition of virus replication after 3 to 6 days; type: functional, organism-based
[32] = Inhibition of Mycobacterium tuberculosis InhA
[33] = test system: Mycobacterium tuberculosis; test: Antimycobacterial activity against Mycobacterium tuberculosis H37Rv; type: functional

Row | SMILES | log K [1] | MIC [2] [µM] | MIC [4] | MIC [6] [µM] | Ratio [7] | MIC95 [8] [µM] | CC50 [9] [µM] | EC50 [10] [µM] | MIC95 [11] [µM] | MIC [12] [µM] | MIC [13] [µM] | EC50 [14] [µM] | MIC [15] [µM] | MCC [16] [µM] | MCC [17] [µM] | MIC95 [18] [µM] | MIC95 [19] [µM] | MCC [20] [µM] | MIC [24] [µg/mL] | MIC [28] [µg/mL] | other results
1 | NNC(=O)c1ccncc1 [ISONIAZID] | -0.743 | 2.8 (≈ 0.384 µg/mL) | 11 µM |  |  |  |  |  |  |  |  |  |  |  |  |  |  |  |  |  | inhibition [3]: Active; Activity [5]: inactive
2 | CCCCCCCCNc1cncc(C(=O)NCc2ccccc2)n1 | 1.431 | 9.2 (≈ 3.13 µg/mL) | 18 µM | > 500 | <=20 | > 500 | > 100 | > 100 | > 500 | > 500 | > 500 | > 100 | > 500 | > 100 | 4 | > 500 | > 500 | > 100 | > 100 | > 100 | MIC [21]: > 500 µM; MIC [22]: > 500 µM; Activity [23]: inactive; CC50 [25]: 1.3 µM; MIC [26]: > 500 µM; MCC [27]: > 100 µM; MIC [29]: > 500 µM; MIC95 [30]: 3.9 µM (≈ 1.33 µg/mL)
3 | CCCCCCCNc1cncc(C(=O)NCc2ccccc2)n1 | 1.207 | 10 (≈ 3.26 µg/mL) | 38 µM | > 500 | <=20 | > 500 | > 100 | > 100 | > 500 | > 500 | > 500 | > 100 | > 500 | > 100 | 4 | > 500 | > 500 | > 100 | > 100 | > 100 | inhibition [3]: inactive; MIC [21]: > 500 µM; MIC [22]: > 500 µM; Activity [23]: inactive; CC50 [25]: 2.4 µM; MIC [26]: > 500 µM; MCC [27]: > 100 µM; MIC [29]: > 500 µM
4 | CCCCCCCCNc1cnc(C(=O)NCc2ccccc2)cn1 | 1.312 | 4.6 (≈ 1.57 µg/mL) | > 100 µg/mL | > 500 | <=20 | > 500 | 28 | 1.1 | > 500 | > 500 | > 500 | > 100 | > 500 | 100 | ≥ 20 | > 500 | > 500 | 100 | > 100 | > 100 | inhibition [3]: inactive; MIC [21]: > 500 µM; MIC [22]: > 500 µM; EC50 [31]: 8.9 µM; CC50 [25]: 62 µM; MIC [26]: > 500 µM; MCC [27]: 20 µM; MIC [29]: > 500 µM
5 | CCCCCCCNc1cnc(C(=O)NCc2ccccc2)cn1 | 1.089 | 10 (≈ 3.26 µg/mL) | > 100 µg/mL | > 500 | <=20 | > 500 | > 100 | 21 | > 500 | > 500 | > 500 | 47 | > 500 | > 100 | > 100 | > 500 | > 500 | > 100 | > 100 | > 100 | MIC [21]: > 500 µM; MIC [22]: > 500 µM; CC50 [25]: > 100 µM; MIC [26]: > 500 µM; MCC [27]: ≥ 100 µM; MIC [29]: > 500 µM
6 | CCCCCCCCc1ccc(Oc2ccccc2)c(O)c1 |  |  |  |  |  |  |  |  |  |  |  |  |  |  |  |  |  |  |  |  | IC50 [32]: 0.005 µM
7 | O=C(NCc1ccccc1)c1cncc(Cl)n1 | 0.2 |  | 404 µM |  |  |  |  |  |  |  |  |  |  |  |  |  |  |  | > 100 | > 100 | MIC [33]: 50 µM (≈ 12.4 µg/mL)
8 | O=C(NCc1ccccc1)c1cnc(Cl)cn1 | 0.186 |  | 100 µg/mL |  |  |  |  |  |  |  |  |  |  |  |  |  |  |  | > 100 | > 100 | MIC [33]: 100 µM (≈ 24.8 µg/mL)
